Relative viability data for four cell lines are collected here from the supplement of paper PMC10307832.

What all share (assay): relative viability (nuclei count vs DMSO), 5 days (fraction); higher = more cells survive
Compound in assay [1]: C1=CC2=NC=CN=C2C=C1/C=C/3\C(=O)NC(=O)S3 + C[C@@H](Oc1cc(-c2cnn(C3CCNCC3)c2)cnc1N)c1c(Cl)ccc(F)c1Cl [Crizotinib] (partner 1 µM)
The procedure, abridged: (§1)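 Cells from lung cancer lines were seeded into 1536-well plates and, one day later, dosed by pin tool. Treatments were either a single drug or a fixed dose of an anchor drug with five library-drug doses (not always all listed) in √10 steps. After 5 days, nuclei were stained in a one-step fixation (final 0.05% Triton X-100, 1% formaldehyde, 1 ug/ml Hoechst) and counted on 4× images, and relative viability is the treated-to-vehicle nuclei ratio, as the median of duplicate plates.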

Compound in assay [2]: CCN1CCN(c2ccc(Nc3cc(N(C)C(=O)Nc4c(Cl)c(OC)cc(OC)c4Cl)ncn3)cc2)CC1 [BGJ398] + CC(C)C[C@H](NC(=O)[C@H](Cc1ccccc1)NC(=O)c1cnccn1)B(O)O [Bortezomib] (partner 0.002 µM)
The procedure, abridged:
as §1

Compound in assay [3]: C1=CC2=NC=CN=C2C=C1/C=C/3\C(=O)NC(=O)S3 + CC(C)C[C@H](NC(=O)[C@H](Cc1ccccc1)NC(=O)c1cnccn1)B(O)O [Bortezomib] (partner 0.002 µM)
The procedure, abridged:
as §1

Compound in assay [4]: CCN1CCN(c2ccc(Nc3cc(N(C)C(=O)Nc4c(Cl)c(OC)cc(OC)c4Cl)ncn3)cc2)CC1 [BGJ398] + NC(=O)Nc1cc(-c2cccc(F)c2)sc1C(=O)N[C@H]1CCCNC1 [AZD7762] (partner 0.2 µM)
In short, it runs like this:
as §1

With NCI-H2023, the relative viability was 0.707 in assay [1] (first compound 0.02 µM); 0.693 in assay [1] (first compound 0.06325 µM); 0.608 in assay [1] (first compound 0.2 µM); 0.61 in assay [1] (first compound 0.6325 µM); 0.613 in assay [1] (first compound 2 µM); 0.966 in assay [2] (first compound 0.01 µM). In addition, the relative viability in assay [2] (first compound 0.03162 µM) turned out to be 1.07; in assay [2] (first compound 0.1 µM) it was 0.978; in assay [2] (first compound 0.3162 µM) it was 0.883; in assay [2] (first compound 1 µM), 1.12; in assay [3] (first compound 0.02 µM) it was 0.924; in assay [3] (first compound 0.06325 µM) it was 0.923. For the same cell line, the relative viability stood at 1.03 in assay [3] (first compound 0.2 µM), 0.875 in assay [3] (first compound 0.6325 µM) and 0.645 in assay [3] (first compound 2 µM).

Take NCI-H520: the relative viability came out at 0.721 in assay [1] (first compound 0.02 µM); 1.01 in assay [1] (first compound 0.06325 µM); 0.713 in assay [1] (first compound 0.2 µM); 0.785 in assay [1] (first compound 0.6325 µM); 0.756 in assay [1] (first compound 2 µM); 0.538 in assay [2] (first compound 0.01 µM). Also, the relative viability amounted to 0.54 in assay [2] (first compound 0.03162 µM); 0.259 in assay [2] (first compound 0.1 µM); 0.201 in assay [2] (first compound 0.3162 µM); 0.162 in assay [2] (first compound 1 µM); 0.793 in assay [3] (first compound 0.02 µM); 0.632 in assay [3] (first compound 0.06325 µM). Moreover, the relative viability in assay [3] (first compound 0.2 µM) is 0.538; in assay [3] (first compound 0.6325 µM) it was 0.489; in assay [3] (first compound 2 µM), 0.657.

With RERF-LC-KJ, the relative viability turned out to be 0.858 in assay [4] (first compound 0.01 µM); 1 in assay [4] (first compound 0.03162 µM); 0.987 in assay [4] (first compound 0.1 µM); 0.819 in assay [4] (first compound 0.3162 µM); 0.295 in assay [4] (first compound 1 µM); 0.547 in assay [1] (first compound 0.02 µM). Further, the relative viability in assay [1] (first compound 0.06325 µM) is 0.927; in assay [1] (first compound 0.2 µM), 0.864; in assay [1] (first compound 0.6325 µM) it was 0.837; in assay [1] (first compound 2 µM) it was 0.753; in assay [2] (first compound 0.01 µM) it was 1.06; in assay [2] (first compound 0.03162 µM), 1.17. For the same cell line, the relative viability turned out to be 1.2 in assay [2] (first compound 0.1 µM); 1.31 in assay [2] (first compound 0.3162 µM); 1.18 in assay [2] (first compound 1 µM); 1.25 in assay [3] (first compound 0.02 µM); 1.17 in assay [3] (first compound 0.06325 µM); 1.23 in assay [3] (first compound 0.2 µM). Moreover, the relative viability in assay [3] (first compound 0.6325 µM) was 1.14; in assay [3] (first compound 2 µM), 1.11.

In the case of A-427, the relative viability in assay [4] (first compound 0.01 µM) was 0.688; in assay [4] (first compound 0.03162 µM), 0.685; in assay [4] (first compound 0.1 µM) it was 0.599; in assay [4] (first compound 0.3162 µM), 0.43; in assay [4] (first compound 1 µM) it was 0.565; in assay [1] (first compound 0.02 µM), 0.848. The relative viability in assay [1] (first compound 0.06325 µM) was determined as 0.792; in assay [1] (first compound 0.2 µM), 0.939; in assay [1] (first compound 0.6325 µM) it was 0.866; in assay [1] (first compound 2 µM) it was 0.843; in assay [2] (first compound 0.01 µM), 0.984; in assay [2] (first compound 0.03162 µM) it was 0.991. In addition, the relative viability in assay [2] (first compound 0.1 µM) came to 1.12; in assay [2] (first compound 0.3162 µM) it was 0.774; in assay [2] (first compound 1 µM), 0.743; in assay [3] (first compound 0.02 µM), 0.991; in assay [3] (first compound 0.06325 µM), 1.1; in assay [3] (first compound 0.2 µM), 1.04. In addition, the relative viability in assay [3] (first compound 0.6325 µM) stood at 0.915; in assay [3] (first compound 2 µM) it was 0.965.
